Laboratory results published in PubChem BioAssay AID248 (DTP/NCI, 2004).
“And” between values parts separate entries of the source, which are not always exact repeats. Equal values may be shown once. Toxic doses and inconclusive results are not listed. No stated cut-off is given here; in the data, active means T/C of 150% or more; inactive means T/C below 125%.

Test system: L1210 leukemia ip in BDF1 mice, survival T/C
Assay: NCI In Vivo Anticancer Drug Screen. Data for tumor model L1210 Leukemia (intraperitoneal) in B6D2F1 (BDF1) mice
Details: higher = longer survival
Summary of the method: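 Ratio derived from survival: compound-dosed mice over vehicle-dosed mice, all bearing a transplantable tumor.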

[1] = endpoint: mean survival time, dose: 50.0 mg/kg/injection, schedule: Q01DX009 (ip), vehicle: Klucel (hydroxypropylcellulose) (HPC)
[2] = endpoint: mean survival time, dose: 100.0 mg/kg/injection, schedule: Q01DX009 (ip), vehicle: Klucel (hydroxypropylcellulose) (HPC)
[3] = endpoint: mean survival time, dose: 200.0 mg/kg/injection, schedule: Q01DX009 (ip), vehicle: Klucel (hydroxypropylcellulose) (HPC)
[4] = endpoint: mean survival time, dose: 400.0 mg/kg/injection, schedule: Q01DX009 (ip), vehicle: Klucel (hydroxypropylcellulose) (HPC)
[5] = endpoint: mean survival time, dose: 50.0 mg/kg/injection, schedule: Q01DX009 (ip), vehicle: saline
[6] = endpoint: mean survival time, dose: 100.0 mg/kg/injection, schedule: Q01DX009 (ip), vehicle: saline
[7] = endpoint: mean survival time, dose: 100.0 mg/kg/injection, schedule: Q04DX003 (ip), vehicle: saline
[8] = endpoint: mean survival time, dose: 200.0 mg/kg/injection, schedule: Q01DX009 (ip), vehicle: saline
[9] = endpoint: mean survival time, dose: 200.0 mg/kg/injection, schedule: Q04DX003 (ip), vehicle: saline
[10] = endpoint: mean survival time, dose: 400.0 mg/kg/injection, schedule: Q01DX009 (ip), vehicle: saline
[11] = endpoint: mean survival time, dose: 400.0 mg/kg/injection, schedule: Q04DX003 (ip), vehicle: saline

Measured: T/C

CNC(=S)N/N=C(/C)CCC/C(C)=N/NC(=S)NC
inactive: endpoint: mean survival time, dose: 1.56 mg/kg/injection, schedule: Q03HX024 (ip), vehicle: Klucel (hydroxypropylcellulose) (HPC) 95 % of control | endpoint: mean survival time, dose: 3.12 mg/kg/injection, schedule: Q01DX009 (ip), vehicle: Klucel (hydroxypropylcellulose) (HPC) 96 % of control | endpoint: mean survival time, dose: 3.12 mg/kg/injection, schedule: Q03HX024 (ip), vehicle: Klucel (hydroxypropylcellulose) (HPC) 102 % of control | endpoint: mean survival time, dose: 6.25 mg/kg/injection, schedule: Q01DX009 (ip), vehicle: Klucel (hydroxypropylcellulose) (HPC) 96 % of control | endpoint: mean survival time, dose: 6.25 mg/kg/injection, schedule: Q03HX024 (ip), vehicle: Klucel (hydroxypropylcellulose) (HPC) 97 % of control | endpoint: mean survival time, dose: 6.25 mg/kg/injection, schedule: Q04DX003 (ip), vehicle: Klucel (hydroxypropylcellulose) (HPC) 108 % of control | endpoint: mean survival time, dose: 12.5 mg/kg/injection, schedule: Q01DX009 (ip), vehicle: Klucel (hydroxypropylcellulose) (HPC) 92 % of control | endpoint: mean survival time, dose: 12.5 mg/kg/injection, schedule: Q03HX024 (ip), vehicle: Klucel (hydroxypropylcellulose) (HPC) 95 % of control | endpoint: mean survival time, dose: 12.5 mg/kg/injection, schedule: Q04DX003 (ip), vehicle: Klucel (hydroxypropylcellulose) (HPC) 101 % of control | endpoint: mean survival time, dose: 25.0 mg/kg/injection, schedule: Q01DX009 (ip), vehicle: Klucel (hydroxypropylcellulose) (HPC) 101 % of control | endpoint: mean survival time, dose: 25.0 mg/kg/injection, schedule: Q03HX024 (ip), vehicle: Klucel (hydroxypropylcellulose) (HPC) 92 % of control | endpoint: mean survival time, dose: 25.0 mg/kg/injection, schedule: Q04DX003 (ip), vehicle: Klucel (hydroxypropylcellulose) (HPC) 103 % of control | [1] 98 % of control | endpoint: mean survival time, dose: 50.0 mg/kg/injection, schedule: Q04DX003 (ip), vehicle: Klucel (hydroxypropylcellulose) (HPC) 101 % of control | endpoint: mean survival time, dose: 100.0 mg/kg/injection, schedule: Q04DX003 (ip), vehicle: Klucel (hydroxypropylcellulose) (HPC) 103 % of control | endpoint: mean survival time, dose: 200.0 mg/kg/injection, schedule: Q04DX003 (ip), vehicle: Klucel (hydroxypropylcellulose) (HPC) 93 % of control | endpoint: mean survival time, dose: 400.0 mg/kg/injection, schedule: Q04DX003 (ip), vehicle: Klucel (hydroxypropylcellulose) (HPC) 108 % of control

Cc1ccc(NC(=S)N2CCCCC2C)cc1C (stereo not drawn)
inactive: [2] 98 % of control | [3] 101 % of control | [4] 91 % of control

C(=N\N(Cc1ccccc1)CN(Cc1ccccc1)/N=C/c1ccccc1)/c1ccccc1
inactive: endpoint: mean survival time, dose: 100.0 mg/kg/injection, schedule: Q01DX001 (ip), vehicle: other 90 % of control | endpoint: mean survival time, dose: 200.0 mg/kg/injection, schedule: Q01DX001 (ip), vehicle: other 94 % of control | endpoint: mean survival time, dose: 400.0 mg/kg/injection, schedule: Q01DX001 (ip), vehicle: other 87 % of control

[Cl][Ge]([c]1ccccc1)([c]1ccccc1)[c]1ccccc1
inactive: [2] 104 % of control | [3] 102 % of control | [4] 95 % of control

O=C(/C=C\c1ccccc1Cl)c1ccccc1
inactive: endpoint: mean survival time, dose: 100.0 mg/kg/injection, schedule: Q04DX002 (ip), vehicle: gum acacia 98 % of control | endpoint: mean survival time, dose: 200.0 mg/kg/injection, schedule: Q04DX002 (ip), vehicle: gum acacia 95 % of control | endpoint: mean survival time, dose: 400.0 mg/kg/injection, schedule: Q04DX002 (ip), vehicle: gum acacia 113 % of control

Cc1nc2ccc(O)cc2cc1CO
inactive: [5] 100 % of control | [6] 87 % of control | [7] 104 % of control | [8] 89 % of control | [9] 103 % of control | [10] 113 % of control | [11] 109 % of control

CC(C)=CC(=O)c1ccccc1
inactive: endpoint: mean survival time, dose: 100.0 mg/kg/injection, schedule: Q01DX001 (ip), vehicle: acetone 100 % of control | endpoint: mean survival time, dose: 200.0 mg/kg/injection, schedule: Q01DX001 (ip), vehicle: acetone 94 % of control | endpoint: mean survival time, dose: 400.0 mg/kg/injection, schedule: Q01DX001 (ip), vehicle: acetone 103 % of control

CCOC(=O)CNc1ccc(F)c(F)c1
inactive: endpoint: mean survival time, dose: 100.0 mg/kg/injection, schedule: Q04DX002 (ip), vehicle: Klucel (hydroxypropylcellulose) (HPC) 97 % of control | endpoint: mean survival time, dose: 200.0 mg/kg/injection, schedule: Q04DX002 (ip), vehicle: Klucel (hydroxypropylcellulose) (HPC) 90 % of control | endpoint: mean survival time, dose: 400.0 mg/kg/injection, schedule: Q04DX002 (ip), vehicle: Klucel (hydroxypropylcellulose) (HPC) 103 % of control

COc1cc(-c2nc(/C=C3\C(=O)C=Cc4ccccc43)c(O)o2)cc(OC)c1OC
inactive: endpoint: mean survival time, dose: 100.0 mg/kg/injection, schedule: Q04DX002 (ip), vehicle: saline with Tween-80 93 % of control | endpoint: mean survival time, dose: 200.0 mg/kg/injection, schedule: Q04DX002 (ip), vehicle: saline with Tween-80 86 % of control | endpoint: mean survival time, dose: 400.0 mg/kg/injection, schedule: Q04DX002 (ip), vehicle: saline with Tween-80 93 % of control

OC1(c2ccccc2)CC2CC1c1ccccc12 (stereo not drawn)
inactive: endpoint: mean survival time, dose: 100.0 mg/kg/injection, schedule: Q01DX001 (ip), vehicle: carboxymethylcellulose (CMC) 111 % of control | endpoint: mean survival time, dose: 200.0 mg/kg/injection, schedule: Q01DX001 (ip), vehicle: carboxymethylcellulose (CMC) 93 % of control | endpoint: mean survival time, dose: 400.0 mg/kg/injection, schedule: Q01DX001 (ip), vehicle: carboxymethylcellulose (CMC) 90 % of control

O=C(CNC(=O)Nc1nccs1)NNC(=O)Nc1cccc(C(F)(F)F)c1
inactive: endpoint: mean survival time, dose: 50.0 mg/kg/injection, schedule: Q01DX009 (ip), vehicle: saline with Tween-80 94 % of control | endpoint: mean survival time, dose: 100.0 mg/kg/injection, schedule: Q01DX009 (ip), vehicle: saline with Tween-80 105 % of control | endpoint: mean survival time, dose: 200.0 mg/kg/injection, schedule: Q01DX009 (ip), vehicle: saline with Tween-80 102 % of control

CC(=O)c1c(O)cc(C)[nH]c1=O
inactive: endpoint: mean survival time, dose: 100.0 mg/kg/injection, schedule: Q01DX001 (ip), vehicle: saline 86 % of control | endpoint: mean survival time, dose: 200.0 mg/kg/injection, schedule: Q01DX001 (ip), vehicle: saline 89 % of control | endpoint: mean survival time, dose: 400.0 mg/kg/injection, schedule: Q01DX001 (ip), vehicle: saline 86 % of control

COc1ccc([N+](=O)[O-])cc1NC(=O)Oc1ccc(SC)cc1
inactive: [1] 111 % of control | [2] 92 % of control | [3] 100 % of control

C1CCC(C2CCCC(C3CCCC[N-]3)[N-]2)[N-]C1.[Cl][Pt] (stereo not drawn)
inactive: endpoint: mean survival time, dose: 12.5 mg/kg/injection, schedule: Q01DX009 (ip), vehicle: saline 102 % of control | endpoint: mean survival time, dose: 25.0 mg/kg/injection, schedule: Q01DX009 (ip), vehicle: saline 98 % of control | [5] 104 % of control and 106 % of control

c1ccc(C2=NCC3(CCCC3)N=C2c2ccccc2)cc1
inactive: [6] 101 % of control | [7] 97 % of control | [8] 91 % of control | [9] 90 % of control | [10] 100 % of control | [11] 92 % of control

CC(=O)OC1C(O)C(C)OC(OC2C(OC(=O)C3CCC4C(C3)OC3(CC(OC(=O)/C=C/c5ccccc5)C(C)CO3)C43CO3)OC(C)C(O)C2OC(C)=O)C1O (stereo not drawn)
inactive: endpoint: median survival time, dose: 0.5 mg/kg/injection, schedule: Q01DX009 (ip), vehicle: distilled water + Tween-80 92 % of control | endpoint: median survival time, dose: 1.0 mg/kg/injection, schedule: Q01DX009 (ip), vehicle: distilled water + Tween-80 95 % of control | endpoint: median survival time, dose: 2.0 mg/kg/injection, schedule: Q01DX009 (ip), vehicle: distilled water + Tween-80 95 % of control | endpoint: median survival time, dose: 4.0 mg/kg/injection, schedule: Q01DX009 (ip), vehicle: distilled water + Tween-80 104 % of control | endpoint: median survival time, dose: 8.0 mg/kg/injection, schedule: Q01DX009 (ip), vehicle: distilled water + Tween-80 107 % of control | endpoint: median survival time, dose: 16.0 mg/kg/injection, schedule: Q01DX009 (ip), vehicle: distilled water + Tween-80 115 % of control | endpoint: median survival time, dose: 32.0 mg/kg/injection, schedule: Q01DX009 (ip), vehicle: distilled water + Tween-80 104 % of control
